Our source for the T/C values is PubChem BioAssay AID248 (DTP/NCI, 2004).

In this experiment the test system is L1210 leukemia ip in BDF1 mice, survival T/C. Kind of experiment: NCI In Vivo Anticancer Drug Screen. Data for tumor model L1210 Leukemia (intraperitoneal) in B6D2F1 (BDF1) mice. Conditions: endpoint: mean survival time, higher = longer survival. The method, boiled down: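 Tumor was transplanted into mice, which were then dosed with test compound or vehicle alone. Survival was recorded for each group, and the treated figure was expressed relative to the control figure.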

The mark [1] stands for this setting: dose: 100.0 mg/kg/injection, schedule: Q01DX009 (ip), vehicle: Klucel (hydroxypropylcellulose) (HPC).
Where [2] appears, read: dose: 100.0 mg/kg/injection, schedule: Q04DX003 (ip), vehicle: Klucel (hydroxypropylcellulose) (HPC).
[3] abbreviates: dose: 200.0 mg/kg/injection, schedule: Q01DX009 (ip), vehicle: Klucel (hydroxypropylcellulose) (HPC).
Where [4] appears, read: dose: 200.0 mg/kg/injection, schedule: Q04DX003 (ip), vehicle: Klucel (hydroxypropylcellulose) (HPC).
[5] abbreviates: dose: 400.0 mg/kg/injection, schedule: Q01DX009 (ip), vehicle: Klucel (hydroxypropylcellulose) (HPC).
The mark [6] stands for this setting: dose: 400.0 mg/kg/injection, schedule: Q04DX003 (ip), vehicle: Klucel (hydroxypropylcellulose) (HPC).
Where [7] appears, read: dose: 25.0 mg/kg/injection, schedule: Q04DX002 (ip), vehicle: saline with Tween-80.
The mark [8] stands for this setting: dose: 50.0 mg/kg/injection, schedule: Q04DX002 (ip), vehicle: saline with Tween-80.
Setting [9] is: dose: 100.0 mg/kg/injection, schedule: Q04DX002 (ip), vehicle: saline with Tween-80.

Several values for one entry are separate records, joined by “and”; a condition that tells them apart may be missing. Equal entries are not always repeated. Toxic doses and inconclusive results are not listed.

For `COC1=C(N)C(=O)c2nc(-c3nc(C(=O)O)c(C)c(-c4ccc(OC)c(OC)c4O)c3N)ccc2C1=O`, the T/C by setting is: (dose: 0.02 mg/kg/injection, schedule: Q01DX009 (ip), vehicle: other) 86 % of control; (dose: 0.05 mg/kg/injection, schedule: Q01DX009 (ip), vehicle: other) 94 % of control; (dose: 0.05 mg/kg/injection, schedule: Q04DX002 (ip), vehicle: saline) 106 % of control; (dose: 0.1 mg/kg/injection, schedule: Q01DX Z (ip), vehicle: alkali diluted with CMC) 103 % of control and 109 % of control; (dose: 0.1 mg/kg/injection, schedule: Q01DX Z (ip), vehicle: water) 105 % of control; (dose: 0.1 mg/kg/injection, schedule: Q04DX002 (ip), vehicle: saline) 120 % of control. Also, the T/C is 102 % of control (dose: 0.12 mg/kg/injection, schedule: Q01DX001 (iv), vehicle: other); 106 % of control (dose: 0.12 mg/kg/injection, schedule: Q01DX009 (ip), vehicle: saline); 124 % of control (dose: 0.18 mg/kg/injection, schedule: Q01DX001 (ip), vehicle: other); 102 % of control (dose: 0.2 mg/kg/injection, schedule: Q01DX009 (ip), vehicle: other); 96 % of control and 106 % of control (dose: 0.2 mg/kg/injection, schedule: Q01DX Z (ip), vehicle: alkali diluted with CMC); 105 % of control (dose: 0.2 mg/kg/injection, schedule: Q01DX Z (ip), vehicle: water). Besides, the T/C was 113 % of control (dose: 0.2 mg/kg/injection, schedule: Q04DX002 (ip), vehicle: saline); 114 % of control (dose: 0.25 mg/kg/injection, schedule: Q01DX001 (iv), vehicle: other); 106 % of control and 116 % of control (dose: 0.25 mg/kg/injection, schedule: Q01DX009 (ip), vehicle: saline); 118 % of control (dose: 0.25 mg/kg/injection, schedule: Q01DX015 (ip), vehicle: water); 102 % of control (dose: 0.3 mg/kg/injection, schedule: Q01DX Z (ip), vehicle: water); 110 % of control (dose: 0.39 mg/kg/injection, schedule: Q04DX002 (ip), vehicle: saline). The T/C by setting is: (dose: 0.4 mg/kg/injection, schedule: Q01DX Z (ip), vehicle: alkali diluted with CMC) 104 % of control and 106 % of control; (dose: 0.45 mg/kg/injection, schedule: Q01DX Z (ip), vehicle: saline) 107 % of control; (dose: 0.5 mg/kg/injection, schedule: Q01DX001 (ip), vehicle: carboxymethylcellulose (CMC)) 95 % of control; (dose: 0.5 mg/kg/injection, schedule: Q01DX001 (iv), vehicle: other) 105 % of control; (dose: 0.5 mg/kg/injection, schedule: Q01DX009 (ip), vehicle: saline) 108 % of control and 86 % of control; (dose: 0.5 mg/kg/injection, schedule: Q01DX015 (ip), vehicle: water) 101 % of control. The T/C is 110 % of control (dose: 0.66 mg/kg/injection, schedule: Q01DX Z (ip), vehicle: saline); 118 % of control (dose: 0.75 mg/kg/injection, schedule: Q01DX001 (ip), vehicle: other); 106 % of control (dose: 0.78 mg/kg/injection, schedule: Q04DX002 (ip), vehicle: saline); 96 % of control and 91 % of control (dose: 0.8 mg/kg/injection, schedule: Q01DX Z (ip), vehicle: alkali diluted with CMC); 91 % of control (dose: 1.0 mg/kg/injection, schedule: Q01DX001 (iv), vehicle: other); 121 % of control (dose: 1.5 mg/kg/injection, schedule: Q01DX001 (ip), vehicle: other). Moreover, the T/C is 120 % of control (dose: 1.5 mg/kg/injection, schedule: Q01DX001 (ip), vehicle: saline); 88 % of control (dose: 2.0 mg/kg/injection, schedule: Q01DX001 (ip), vehicle: carboxymethylcellulose (CMC)); 105 % of control (dose: 2.5 mg/kg/injection, schedule: Q01DX001 (oral), vehicle: water); 98 % of control (dose: 5.0 mg/kg/injection, schedule: Q01DX001 (oral), vehicle: water); 88 % of control (dose: 10.0 mg/kg/injection, schedule: Q01DX001 (oral), vehicle: water).
Consider `CCN(CC)C(=O)C1C2C=CC(CC2)C1C(=O)N(CC)CC` (stereo not given), for which the T/C was 100 % of control (dose: 100.0 mg/kg/injection, schedule: Q04DX003 (ip), vehicle: saline); 96 % of control (dose: 200.0 mg/kg/injection, schedule: Q04DX003 (ip), vehicle: saline); 96 % of control (dose: 400.0 mg/kg/injection, schedule: Q04DX003 (ip), vehicle: saline).
On to `O=C(Nc1ccc(C2=NCCN2)cc1)c1ccc(C(=O)Nc2ccc(C3=NCCN3)cc2)o1`, for which the T/C reads like this: (dose: 15.0 mg/kg/injection, schedule: Q01DX Z (ip), vehicle: carboxymethylcellulose (CMC)) 113 % of control; (dose: 30.0 mg/kg/injection, schedule: Q01DX Z (ip), vehicle: carboxymethylcellulose (CMC)) 120 % of control; (dose: 120.0 mg/kg/injection, schedule: Q01DX Z (ip), vehicle: carboxymethylcellulose (CMC)) 248 % of control; (dose: 240.0 mg/kg/injection, schedule: Q01DX Z (ip), vehicle: saline) 252 % of control; (dose: 480.0 mg/kg/injection, schedule: Q01DX Z (ip), vehicle: saline) 111 % of control.
For the molecule `COc1ccc(COC(=O)CN2C(=O)c3ccccc3C2=O)cc1`, the T/C is, setting by setting: under setting [1], 98 % of control; under setting [2], 95 % of control; under setting [3], 107 % of control; under setting [4], 95 % of control; under setting [5], 98 % of control; under setting [6], 93 % of control.
For `CCCCSCCSC(=N)N`, the T/C runs as follows: under setting [7], 100 % of control; under setting [8], 103 % of control; under setting [9], 103 % of control.
In the case of `CCOP(=O)(CSc1ccccc1)OCC`, the T/C was 93 % of control (dose: 25.0 mg/kg/injection, schedule: Q01DX009 (ip), vehicle: saline with Tween-80); 107 % of control under setting [7]; 100 % of control (dose: 50.0 mg/kg/injection, schedule: Q01DX009 (ip), vehicle: saline with Tween-80); 107 % of control under setting [8]; 86 % of control under setting [9].
As to `Cc1nccnc1SC1CCCCC1`, the T/C was 96 % of control under setting [2], 96 % of control under setting [4] and 93 % of control under setting [6].
On to `COc1ccc(C)cc1NC(=O)SCc1ccccc1`, for which the T/C is, setting by setting: (dose: 100.0 mg/kg/injection, schedule: Q01DX009 (ip), vehicle: saline with Tween-80) 100 % of control; (dose: 200.0 mg/kg/injection, schedule: Q01DX009 (ip), vehicle: saline with Tween-80) 101 % of control; (dose: 400.0 mg/kg/injection, schedule: Q01DX009 (ip), vehicle: saline with Tween-80) 94 % of control.
Regarding `C/C(=N/N)c1ccccc1O`, the T/C reads like this: (dose: 25.6 mg/kg/injection, schedule: Q04DX002 (ip), vehicle: saline) 88 % of control; (dose: 160.0 mg/kg/injection, schedule: Q04DX002 (ip), vehicle: saline) 92 % of control.
Consider `O=C(O)/C(=C\c1ccccc1)c1ccccc1`, for which the T/C (dose: 100.0 mg/kg/injection, schedule: Q04DX003 (ip), vehicle: saline with Tween-80) is 100 % of control; the T/C (dose: 200.0 mg/kg/injection, schedule: Q04DX003 (ip), vehicle: saline with Tween-80) is 94 % of control; the T/C (dose: 400.0 mg/kg/injection, schedule: Q04DX003 (ip), vehicle: saline with Tween-80) was 100 % of control.
As to `CCCCCCCCCCCCCCCC(=O)OCc1cc(=O)c(O)co1`, the T/C by setting is: under setting [1], 95 % of control; under setting [2], 91 % of control; under setting [3], 101 % of control; under setting [4], 94 % of control; under setting [5], 97 % of control; under setting [6], 94 % of control.
As to `CCN(CCO)c1ccc(N=O)cc1`, the T/C is, setting by setting: (dose: 5.0 mg/kg/injection, schedule: Q01DX001 (ip), vehicle: saline) 95 % of control; (dose: 10.0 mg/kg/injection, schedule: Q01DX001 (ip), vehicle: saline) 101 % of control; (dose: 50.0 mg/kg/injection, schedule: Q01DX001 (ip), vehicle: saline) 90 % of control.
With `CCCCCC(CCCCC)c1ccccn1`, the T/C is 94 % of control (dose: 100.0 mg/kg/injection, schedule: Q01DX001 (ip), vehicle: saline); 103 % of control (dose: 200.0 mg/kg/injection, schedule: Q01DX001 (ip), vehicle: saline); 100 % of control (dose: 400.0 mg/kg/injection, schedule: Q01DX001 (ip), vehicle: saline).
